From patent publication US3960877A, “N-monosubstituted-2,3-pyridinedicarboxamides, and related compounds” (priority 1974, dated 1976)

Tests used:
Format in all cases: in vivo
Lambsquarters [1] = assay: Preemergence herbicidal activity, % control of plant growth; conditions: Chenopodium album, pre-emergence, 504 h, 16 lb/acre, about 3 weeks
Source text: (§1) By "preemergence" is meant that the compound is applied to the soil prior to emergence of the weed species sought to be controlled. This term, as used herein, also means the application of the herbicidal compounds falling within the scope of this disclosure to areas wherein useful or desirable plants are either growing or have been sown, but where the undesirable plants sought to be controlled have not as yet emerged.
(§2) In using the compound, seeds of the types of plants set forth in Table II were sown in fresh soil. In the preemergence test the soil was sprayed with a solution of the test compound immediately after the seeds were planted, and before any noticeable growth developed. The solution was about a 2 percent by weight solution of the compound in acetone and/or alcohol. The compound was applied at the rate of 16 pounds per acre of soil surface.
(§3) Approximately 3 weeks after spray application, the herbicidal activity of the compound was determined by visual observation of the treated area in comparison with untreated control areas. These observations are reported below in Table II wherein the average activity rating is reported as the percent control of plant growth.
(§4) *Preemergence test: compound applied at rate of 16 lb/acre

Cheatgrass [2] = assay: as above; conditions: Bromus tectorum, pre-emergence, 504 h, 16 lb/acre, about 3 weeks
Source text: as §1, §2, §3, §4

Alfalfa [3] = assay: as above; conditions: Medicago sativa, pre-emergence, 504 h, 16 lb/acre, about 3 weeks
Source text: as §1, §2, §3, §4

Nutgrass [4] = assay: as above; conditions: pre-emergence, 504 h, 16 lb/acre, about 3 weeks
Source text: as §1, §2, §3, §4

Johnsongrass [5] = assay: as above; conditions: Sorghum halepense, pre-emergence, 504 h, 16 lb/acre, about 3 weeks
Source text: as §1, §2, §3, §4

Pigweed [6] = assay: as above; conditions: Amaranthus retroflexus, pre-emergence, 504 h, 16 lb/acre, about 3 weeks
Source text: as §1, §2, §3, §4

Foxtail [7] = assay: as above; conditions: Setaria, pre-emergence, 504 h, 16 lb/acre, about 3 weeks
Source text: as §1, §2, §3, §4

Yellow Rocket [8] = assay: as above; conditions: pre-emergence, 504 h, 16 lb/acre, about 3 weeks
Source text: as §1, §2, §3, §4

Corn [9] = assay: as above; conditions: Zea mays, pre-emergence, 504 h, 16 lb/acre, about 3 weeks
Source text: as §1, §2, §3, §4

Barnyard Grass [10] = assay: as above; conditions: Echinochloa crus-galli, pre-emergence, 504 h; barnyard grass; 16 lb/acre; about 3 weeks
Source text: as §1, §2, §3, §4

Cucumber [11] = assay: as above; conditions: Cucumis sativus, pre-emergence, 504 h, 16 lb/acre, about 3 weeks
Source text: as §1, §2, §3, §4

Chickweed [12] = assay: as above; conditions: pre-emergence, 504 h, 16 lb/acre, about 3 weeks
Source text: as §1, §2, §3, §4

Snapbeans [13] = assay: as above; conditions: pre-emergence, 504 h, 16 lb/acre, about 3 weeks
Source text: as §1, §2, §3, §4

Crabgrass [14] = assay: as above; conditions: Digitaria sanguinalis, pre-emergence, 504 h, 16 lb/acre, about 3 weeks
Source text: as §1, §2, §3, §4

Velvetleaf [15] = assay: as above; conditions: Abutilon theophrasti, pre-emergence, 504 h, 16 lb/acre, about 3 weeks
Source text: as §1, §2, §3, §4

Curled Dock [16] = assay: as above; conditions: pre-emergence, 504 h, 16 lb/acre, about 3 weeks
Source text: as §1, §2, §3, §4

Wild Oats [17] = assay: as above; conditions: Avena fatua, pre-emergence, 504 h, 16 lb/acre, about 3 weeks
Source text: as §1, §2, §3, §4

Lambsquarters [18] = assay: Postemergence herbicidal activity, % control of plant growth; conditions: Chenopodium album, post-emergence, 264 h, 8 lb/acre, about 11 days
Source text: (§5) By the term "postemergence" is meant that the compound is applied to the plant sought to be controlled after it has emerged from the soil surface. This term is also used to describe the application of herbicidally active compounds to soil surface in and around growing plants sought to be controlled for purposes of effecting root absorption by the undesirable plant species.
(§6) In the postemergence test the soil and developing plants were sprayed approximately 2 weeks after the seeds were sown. The compound was applied at the rate of 8 pounds per acre from about a 2 percent by weight solution of the test compound in acetone and/or alcohol. The postemergence herbicidal activity was measured in the same way as the preemergence activity; i.e. visual observation approximately 11 days after spraying, and expressed as the percent control of plant growth.
(§7) **Postemergence test: compound applied at rate of 8 lb/acre

Cheatgrass [19] = assay: as above; conditions: Bromus tectorum, post-emergence, 264 h, 8 lb/acre, about 11 days
Source text: as §5, §6, §7

Alfalfa [20] = assay: as above; conditions: Medicago sativa, post-emergence, 264 h, 8 lb/acre, about 11 days
Source text: as §5, §6, §7

Nutgrass [21] = assay: as above; conditions: post-emergence, 264 h, 8 lb/acre, about 11 days
Source text: as §5, §6, §7

Johnsongrass [22] = assay: as above; conditions: Sorghum halepense, post-emergence, 264 h, 8 lb/acre, about 11 days
Source text: as §5, §6, §7

Pigweed [23] = assay: as above; conditions: Amaranthus retroflexus, post-emergence, 264 h, 8 lb/acre, about 11 days
Source text: as §5, §6, §7

Foxtail [24] = assay: as above; conditions: Setaria, post-emergence, 264 h, 8 lb/acre, about 11 days
Source text: as §5, §6, §7

Yellow Rocket [25] = assay: as above; conditions: post-emergence, 264 h, 8 lb/acre, about 11 days
Source text: as §5, §6, §7

Corn [26] = assay: as above; conditions: Zea mays, post-emergence, 264 h, 8 lb/acre, about 11 days
Source text: as §5, §6, §7

Barnyard Grass [27] = assay: as above; conditions: Echinochloa crus-galli, post-emergence, 264 h, 8 lb/acre, about 11 days
Source text: as §5, §6, §7

Cucumber [28] = assay: as above; conditions: Cucumis sativus, post-emergence, 264 h, 8 lb/acre, about 11 days
Source text: as §5, §6, §7

Chickweed [29] = assay: as above; conditions: post-emergence, 264 h, 8 lb/acre, about 11 days
Source text: as §5, §6, §7

Snapbeans [30] = assay: as above; conditions: post-emergence, 264 h, 8 lb/acre, about 11 days
Source text: as §5, §6, §7

Crabgrass [31] = assay: as above; conditions: Digitaria sanguinalis, post-emergence, 264 h, 8 lb/acre, about 11 days
Source text: as §5, §6, §7

Velvetleaf [32] = assay: as above; conditions: Abutilon theophrasti, post-emergence, 264 h, 8 lb/acre, about 11 days
Source text: as §5, §6, §7

Curled Dock [33] = assay: as above; conditions: post-emergence, 264 h, 8 lb/acre, about 11 days
Source text: as §5, §6, §7

Wild Oats [34] = assay: as above; conditions: Avena fatua, post-emergence, 264 h, 8 lb/acre, about 11 days
Source text: as §5, §6, §7

What does the source list for `CCCCC(CC)Cn1c(=O)[nH]c2cccnc2c1=O` (centres unmarked) [3-(2-ethylhexyl)pyrido[3,2-d]pyrimidine-2,4(1H,3H)-dione]?
pest or weed control at 17933.6 g/ha (Lambsquarters [1]): 30%; pest or weed control at 17933.6 g/ha (Cheatgrass [2]): 0%; pest or weed control at 17933.6 g/ha (Alfalfa [3]): 0%; pest or weed control at 17933.6 g/ha (Nutgrass [4]): 0%; pest or weed control at 17933.6 g/ha (Johnsongrass [5]): 0%; pest or weed control at 17933.6 g/ha (Pigweed [6]): 0%; pest or weed control at 17933.6 g/ha (Foxtail [7]): 0%; pest or weed control at 17933.6 g/ha (Yellow Rocket [8]): 90%; plant injury at 17933.6 g/ha (Corn [9]): 0%; pest or weed control at 17933.6 g/ha (Barnyard Grass [10]): 0%; pest or weed control at 17933.6 g/ha (Cucumber [11]): 10%; pest or weed control at 17933.6 g/ha (Chickweed [12]): 70%; pest or weed control at 17933.6 g/ha (Snapbeans [13]): 0%; pest or weed control at 17933.6 g/ha (Crabgrass [14]): 10%; pest or weed control at 17933.6 g/ha (Velvetleaf [15]): 0%; pest or weed control at 17933.6 g/ha (Curled Dock [16]): 0%; pest or weed control at 17933.6 g/ha (Wild Oats [17]): 0%; pest or weed control at 8966.8 g/ha (Lambsquarters [18]): 100%; pest or weed control at 8966.8 g/ha (Cheatgrass [19]): 0%; pest or weed control at 8966.8 g/ha (Alfalfa [20]): 0%; pest or weed control at 8966.8 g/ha (Nutgrass [21]): 0%; pest or weed control at 8966.8 g/ha (Johnsongrass [22]): 0%; pest or weed control at 8966.8 g/ha (Pigweed [23]): 100%; pest or weed control at 8966.8 g/ha (Foxtail [24]): 0%; pest or weed control at 8966.8 g/ha (Yellow Rocket [25]): 90%; plant injury at 8966.8 g/ha (Corn [26]): 0%; pest or weed control at 8966.8 g/ha (Barnyard Grass [27]): 0%; pest or weed control at 8966.8 g/ha (Cucumber [28]): 20%; pest or weed control at 8966.8 g/ha (Chickweed [29]): 50%; pest or weed control at 8966.8 g/ha (Snapbeans [30]): 0%; pest or weed control at 8966.8 g/ha (Crabgrass [31]): 10%; pest or weed control at 8966.8 g/ha (Velvetleaf [32]): 0%; pest or weed control at 8966.8 g/ha (Curled Dock [33]): 10%; pest or weed control at 8966.8 g/ha (Wild Oats [34]): 0%

Which results are given for `C=CCn1c(=O)[nH]c2cccnc2c1=O` [3-allyl-pyrido[3,2-d]pyrimidine-2,4(1H,3H)-dione]?
pest or weed control at 17933.6 g/ha (Lambsquarters [1]): 100%; pest or weed control at 17933.6 g/ha (Cheatgrass [2]): 100%; pest or weed control at 17933.6 g/ha (Alfalfa [3]): 100%; pest or weed control at 17933.6 g/ha (Nutgrass [4]): 20%; pest or weed control at 17933.6 g/ha (Johnsongrass [5]): 90%; pest or weed control at 17933.6 g/ha (Pigweed [6]): 100%; pest or weed control at 17933.6 g/ha (Foxtail [7]): 90%; pest or weed control at 17933.6 g/ha (Yellow Rocket [8]): 100%; plant injury at 17933.6 g/ha (Corn [9]): 50%; pest or weed control at 17933.6 g/ha (Barnyard Grass [10]): 90%; pest or weed control at 17933.6 g/ha (Cucumber [11]): 100%; pest or weed control at 17933.6 g/ha (Chickweed [12]): 100%; pest or weed control at 17933.6 g/ha (Snapbeans [13]): 100%; pest or weed control at 17933.6 g/ha (Crabgrass [14]): 100%; pest or weed control at 17933.6 g/ha (Velvetleaf [15]): 90%; pest or weed control at 17933.6 g/ha (Curled Dock [16]): 100%; pest or weed control at 17933.6 g/ha (Wild Oats [17]): 100%; pest or weed control at 8966.8 g/ha (Lambsquarters [18]): 100%; pest or weed control at 8966.8 g/ha (Cheatgrass [19]): 30%; pest or weed control at 8966.8 g/ha (Alfalfa [20]): 100%; pest or weed control at 8966.8 g/ha (Nutgrass [21]): 30%; pest or weed control at 8966.8 g/ha (Johnsongrass [22]): 100%; pest or weed control at 8966.8 g/ha (Pigweed [23]): 100%; pest or weed control at 8966.8 g/ha (Foxtail [24]): 100%; pest or weed control at 8966.8 g/ha (Yellow Rocket [25]): 100%; plant injury at 8966.8 g/ha (Corn [26]): 30%; pest or weed control at 8966.8 g/ha (Barnyard Grass [27]): 100%; pest or weed control at 8966.8 g/ha (Cucumber [28]): 100%; pest or weed control at 8966.8 g/ha (Chickweed [29]): 100%; pest or weed control at 8966.8 g/ha (Snapbeans [30]): 100%; pest or weed control at 8966.8 g/ha (Crabgrass [31]): 100%; pest or weed control at 8966.8 g/ha (Velvetleaf [32]): 100%; pest or weed control at 8966.8 g/ha (Curled Dock [33]): 100%; pest or weed control at 8966.8 g/ha (Wild Oats [34]): 20%
